Earlier results as cited in publication PMC9501525, “Conjugation of a Cationic Cell-Penetrating Peptide with a Novel Kunitzin-like Trypsin Inhibitor: New Insights for Enhancement of Peptide Bioactivities” (Pharmaceutics, 2022).

How the values were obtained:
[1] = system: E. coli (ATCC 8739); settings: ref [26]; cited from earlier work
Text: (§1) Table 3 MIC/MBC of kunitzin-OV2 and its relatives against different microorganisms. | column: TAT ^a

[2] = system: P. aeruginosa (ATCC 9027); settings: ref [26]; cited from earlier work
Text: as §1

[3] = system: MRSA (NCTC 12493); settings: ref [26]; cited from earlier work
Text: as §1

[4] = system: C. albicans (ATCC 10231); settings: ref [26]; cited from earlier work
Text: as §1

[5] = system: S. aureus (ATCC 6538); settings: ref [26]; cited from earlier work
Text: as §1

[6] = system: E. coli; design: method as in PMID 28943153; settings: ref [41]; cited from earlier work

| Substance | MBC [1] [µM] | MIC [1] [µM] | MBC [2] [µM] | MIC [2] [µM] | MBC [3] [µM] | MIC [3] [µM] | MBC [4] [µM] | MIC [4] [µM] | MBC [5] [µM] | MIC [5] [µM] | MBC [6] [µg/mL] | MIC [6] [µg/mL] |
| --- | --- | --- | --- | --- | --- | --- | --- | --- | --- | --- | --- | --- |
| RKKRRQRRR [TAT, classical short cationic cell-penetrating peptide TAT48–56] | >128 | >128 | >128 | >128 | >128 | >128 | >128 | >128 | >128 | >128 |  |  |
| melittin: typical AMP, literature comparator, ref |  |  |  |  |  |  |  |  |  |  | 64 to 128 | 40 to 42.5 |
